# Activity calls are given as the source filed them. No cut-off for these calls is given here.
# Experiments:
# [1] = system: BaF3; assay: Effect on proliferation in wild type BaF3 cells; assay type: functional, cell-based; conditions: Homo sapiens
# [2] = system: BaF3; assay: Effect on proliferation in BaF3 EPOr cells; assay type: functional, cell-based; conditions: Homo sapiens
compound,measurement,setting,value
COc1ccc(C(=O)/C=C/c2ccc(N3C[C@H](CNC(C)=O)OC3=O)cc2)cc1,Activity,[1],Active
same,Activity,[2],Active
